Patent publication US9469645B2, “Compounds and compositions for the treatment of parasitic diseases” (Novartis AG, priority 2009, dated 2016)

Legend:
[1] = system: 3D7 P. falciparum strain; assay: parasite proliferation assay in infected red blood cells (SYBR Green I); format: cell-based, Plasmodium falciparum; details: Plasmodium falciparum, 3D7, Erythrocyte, 3D7 strain; read-out: EC50 3D7 strain
Method in brief: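 P. falciparum 3D7 grown in O+ human erythrocytes to 3–8% parasitemia and exposed to compounds. Proliferation read as the increase in parasite DNA. Detection used SYBR Green I in saponin/triton-X/EDTA lysis buffer, with overnight lysis at room temperature.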

[2] = system: W2 strain; assay: parasite proliferation assay in infected red blood cells (SYBR Green I), W2 strain; format: cell-based; details: Erythrocyte
Excerpt: Compounds of the invention can be assayed to measure their capacity to inhibit proliferation of parasitemia in infected red blood cells. The proliferation is quantified by the addition of SYBR Green I (INVITROGEN)® dye which has a high affinity for double stranded DNA.

SMILES	EC50 [1]	EC50 [2]	EC50 ([2]; Plasmodium falciparum)
Cc1ccc(Nc2c(-c3ccc(F)cc3)nc3n2CCN(C(=O)C(C)(C)Nc2ccccc2)C3)cc1 [Compound 374]	0.59 µM	0.248 µM	
N#Cc1ccc(Nc2c(-c3ccc(F)cc3)nc3n2CCN(C(=O)CN)C3)cc1 [Compound 264]	0.11 µM	0.154 µM	
CCCNC(=O)C[C@H](N)C(=O)N1CCn2c(nc(-c3cccc(F)c3)c2Nc2ccc(F)cc2)C1 [Compound 256]	1.16 µM	1.48 µM	
CCCC[C@H](NC)C(=O)N1CCn2c(nc(-c3ccc(F)cc3)c2Nc2ccc(C)cc2)C1 [Compound 389]	0.06 µM	0.051 µM	
CC(C)[C@H](N)C(=O)N1CCn2c(nc(-c3ccc(F)cc3)c2Nc2ccc(Cl)c(F)c2)C1 [Compound 313]	0.02 µM	0.004 µM	
CCCCCNc1ccc(C[C@H](NC(=O)OC(C)(C)C)C(=O)N2CCn3c(nc(-c4ccc(F)cc4)c3Nc3ccc(C)cc3)C2)cc1 [Compound 267, (S)-tert-butyl 1-(2-(4-fluorophenyl)-3-(p-tolylamino)-5,6-dihydroimidazo[1,2-a]pyrazin-7 (8H)-yl)-1-oxo-3-(4-(pentylamino)phenyl)propan-2-ylcarbamate]	0.99 µM	0.474 µM	
Cc1ccc(Nc2c(-c3ccc(F)cc3)nc3n2CCN(C(=O)[C@@H](N)CCCCNC(=O)CCOCCOCCOCCOCCNC(=O)CCCCC2SCC4NC(=O)NC42)C3)cc1 (stereo partly drawn) [Compound 159]	5.7 µM	2.91 µM	
C[C@H](C(=O)N1CCn2c(nc(-c3cccc(F)c3)c2Nc2ccc(Cl)c(F)c2)C1)c1ccccc1 [Compound 223]	0.26 µM	0.206 µM	
Cc1ccc(CC(N)C(=O)N2CCn3cc(-c4ccc(F)cc4)nc3C2(C)C)cc1 (stereo not drawn) [Compound 700, 2-amino-1-(2-(4-fluorophenyl)-8,8-dimethyl-5,6-dihydroimidazo[1,2-a]pyrazin-7(8H)-yl)-3-p-tolylpropan-1-one]	> 9.51 µM		7 µM
CC1(C)c2nc(-c3ccc(F)cc3)c(Sc3ccc(F)c(F)c3)n2CCN1C(=O)CN [Compound 718]	0.008 µM		0.006 µM
Cc1ccc(Nc2c(-c3ccc(F)cc3)nc3n2CCN(C(=O)C(C)Oc2ccccc2)C3)cc1 (stereo not drawn) [Compound 202]	0.16 µM	0.102 µM	
CC(C)(C)Nc1c(-c2ccc(F)cc2)nc2n1CCNC2 [Compound 297, N-tert-butyl-2-(4-fluorophenyl)-5,6,7,8-tetrahydroimidazo[1,2-a]pyrazin-3-amine]	5.29 µM	8.51 µM	
Cc1ccc(Nc2c(-c3cccc(F)c3)nc3n2C(C)(C)CN(C(=O)[C@@H](O)Cc2ccccc2)C3)cc1 [Compound 599]	0.12 µM		0.134 µM
Cc1ccc(Nc2c(-c3ccc(F)cc3)nc3n2CCN(C(=O)Cc2ccc(F)cc2)C3)cc1 [Compound 233]	0.01 µM	0.015 µM	
Fc1ccc(Nc2c(-c3ccc(F)cc3)nc3cnccn23)cc1 [Example 26, N,2-bis(4-fluorophenyl)imidazo[1,2-a]pyrazin-3-amine]	> 10 µM	5.52 µM	
Cc1ccc(Nc2c(-c3ccc(F)cc3)nc3n2CCN(C(=O)[C@@H]2CCCN2)C3)cc1 [Compound 90]	0.65 µM	0.6 µM	
CCC(=O)OC(C(=O)N1CCn2c(nc(-c3ccc(F)cc3)c2Nc2ccc(C)cc2)C1)c1ccccc1 (stereo not drawn) [Compound 268]	0.01 µM	0.012 µM	
Cc1cccc(Nc2c(-c3ccc(F)cc3)nc3n2CCN(C(=O)C(C)(C)N)C3)c1 [Compound 638]	0.065 µM		0.068 µM
Cc1ccc(Nc2c(-c3ccc(F)cc3)nc3n2CCN(C(=O)CC2CCCO2)C3)cc1 (stereo not drawn) [Compound 211]	0.3 µM	0.283 µM	
CC1(C)c2nc(-c3ccc(F)cc3)c(NC3CCC(c4ccccc4)CC3)n2CCN1C(=O)CN (stereo not drawn) [Compound 661]	0.339 µM		0.52 µM
CCC(=O)N[C@H](C(=O)N1CCn2c(nc(-c3ccc(F)cc3)c2Nc2ccc(C)cc2)C1)c1ccccc1 [Compound 290]	0.44 µM	0.397 µM	
CC1(C)C(=O)NCc2nc(-c3ccc(F)cc3)c(Nc3ccc(Cl)c(F)c3)n21 [Compound 618]	2.13 µM		2.89 µM
Cc1ccc(Nc2c(-c3ccc(F)cc3)nc3n2CCN(C(=O)C(Nc2ccc(C)cc2)c2ccccc2)C3)cc1 (stereo not drawn) [Compound 371]	1.52 µM	1.28 µM	
Cc1ccc(Nc2c(-c3ccc(F)cc3)nc3n2CCN(C(=O)Cc2ccncc2)C3)cc1 [Compound 227]	0.09 µM	0.103 µM	
Cc1cc(Nc2c(-c3ccc(F)cc3)nc3n2CC(=O)N(CCN(C)C)C3(C)C)ccc1F [Compound 683]	0.125 µM		0.112 µM
CCCN(CCC)[C@@H](C)C(=O)N1CCn2c(nc(-c3ccc(F)cc3)c2Nc2ccc(C)cc2)C1 [Compound 148]	4.06 µM	1.43 µM	
Cc1ccc(Nc2c(-c3ccc(F)cc3)nc3n2CCN(C(=O)C(O)c2ccc(C(F)(F)F)cc2)C3)cc1 (stereo not drawn) [Compound 127]	0.06 µM	0.051 µM	

SMILES	EC50 [1]	EC50 [2]	EC50 ([2]; Plasmodium falciparum)
O=C(CNC1CC1)N1CCn2c(nc(-c3ccc(F)cc3)c2Nc2ccc(F)cc2)C1 [Compound 68]	0.15 µM	0.264 µM	
O=C(CN1CCn2c(nc(-c3ccc(F)cc3)c2Nc2ccc(Cl)cc2)C1)c1ccc(F)cc1 [Compound 271]	0.44 µM	0.385 µM	
CC(C)(C)OC(=O)N[C@@H](Cc1ccc(N)cc1)C(=O)N1CCn2c(nc(-c3cccc(F)c3)c2Nc2ccc(F)cc2)C1 [Compound 243]	2.97 µM	0.697 µM	
CC1(C)CN(C(=O)CN)Cc2nc(-c3cccc(F)c3)c(Nc3ccc(F)c(Cl)c3)n21 [Compound 624]	0.1 µM		0.167 µM
CCCCC(=O)Nc1ccc(C[C@H](NC(=O)OC(C)(C)C)C(=O)N2CCn3c(nc(-c4cccc(F)c4)c3Nc3ccc(F)cc3)C2)cc1 [Compound 254]	3.44 µM	0.727 µM	
CNCC(=O)N1CCn2c(nc(-c3ccc(F)cc3)c2Nc2ccc(F)cc2)C1 [Example 32, 1-(2-(4-fluorophenyl)-3-(4-fluorophenylamino)-5,6-dihydroimidazo[1,2-a]pyrazin-7(8H)-yl)-2-(methylamino)ethanone]	0.21 µM	0.219 µM	
Cc1ccc(Nc2c(-c3ccc(F)cc3)nc3n2CCN(C(=O)CC(C)(O)C(F)(F)F)C3)cc1 (stereo not drawn) [Compound 120]	0.11 µM	0.123 µM	
Cc1ccc(Nc2c(-c3cccc(F)c3)nc3n2CC(=O)NC3(C)C)cc1F [Compound 603]	0.05 µM		0.073 µM
Cc1cc(Nc2c(-c3cccc(F)c3)nc3n2C(C)(C)CN(C(=O)CN)C3)ccc1F [Compound 625]	0.17 µM		0.194 µM
Cc1ccc(Nc2c(-c3ccc(F)cc3)nc3n2CCN(C(=O)[C@@H](N)C(C)(C)C)C3)cc1 [Compound 170]	0.09 µM	0.054 µM	
O=C(CNCC(F)F)N1CCn2c(nc(-c3ccc(F)cc3)c2Nc2ccc(F)cc2)C1 [Compound 65]	0.47 µM	0.509 µM	
C[C@H](N)C(=O)N1CCn2c(nc(-c3ccc(F)cc3)c2Nc2ccc(Cl)c(F)c2)C1 [Compound 314]	0.03 µM	0.02 µM	
Fc1ccc(-c2nc3n(c2Nc2ccc(Cl)c(F)c2)CCNC3)cc1 [Compound 192]	0.11 µM	0.095 µM	
CN(c1ccc(Cl)c(F)c1)c1c(-c2ccc(F)cc2)nc2n1CCN(C(=O)C(C)(C)N)C2 [Compound 294]	0.11 µM	0.113 µM	
CC(O)CN[C@@H](Cc1ccccc1)C(=O)N1CCn2c(nc(-c3ccc(F)cc3)c2Nc2ccc(Cl)c(F)c2)C1 (stereo partly drawn) [Compound 281]	0.82 µM	0.596 µM	
CCN(CC)CCOc1ccccc1-c1nc2ccccn2c1NC(C)(C)CC(C)(C)C [Compound 744]	5.24 µM		2.81 µM
O=C(CN1CCCC(F)(F)C1)N1CCn2c(nc(-c3ccc(F)cc3)c2Nc2ccc(Cl)cc2)C1 [Compound 76]	0.06 µM	0.061 µM	
Cc1ccc(Nc2c(-c3ccc(F)cc3)nc3n2CCN(C(=O)[C@@H](C)c2ccccc2)C3)cc1 [Compound 175]	0.08 µM	0.105 µM	
CC1(C)c2nc(-c3ccc(F)cc3)c(Oc3ccc(F)cc3)n2CCN1C(=O)CN [Compound 709, 2-amino-1-(3-(4-fluorophenoxy)-2-(4-fluorophenyl)-8,8-dimethyl-5,6-dihydroimidazo[1,2-a]pyrazin-7(8H)-yl)ethanone]	0.003 µM		0.008 µM
COc1ccc(-c2nc3n(c2Nc2ccc(F)cc2)CCN(C(=O)CN)C3)cc1 [Compound 53]	2.27 µM	1.7 µM	
CC1(C)NCCn2c1nc(-c1ccc(F)cc1)c2C(=O)Nc1ccc(F)cc1 [Compound 707, N,2-bis(4-fluorophenyl)-8,8-dimethyl-5,6,7,8-tetrahydroimidazo[1,2-a]pyrazine-3-carboxamide]	6.54 µM		> 10 µM
O=C(CN1CCCC(C(F)(F)F)C1)N1CCn2c(nc(-c3ccc(F)cc3)c2Nc2ccc(F)cc2)C1 (stereo not drawn) [Compound 63]	1.95 µM	1.61 µM	
Cc1ccc2nc(-c3ccc(F)cc3)c(Nc3ccc(Cl)c(F)c3)n2c1 [Compound 752]	1.62 µM		2.38 µM
Cc1ccc(Nc2c(-c3ccc(F)cc3)nc3n2CCN(C(=O)[C@@H](N)Cc2ccc(CN)cc2)C3)cc1 [Compound 213]	3.8 µM	4.82 µM	
CN1CCOC(C(=O)N2CCn3c(nc(-c4ccc(F)cc4)c3Nc3ccc(Cl)c(F)c3)C2)C1 (stereo not drawn) [Compound 372]	0.69 µM	0.554 µM	
COC(C(=O)N1CCn2c(nc(-c3ccc(F)cc3)c2Nc2ccc(C)cc2)C1)c1ccccc1 (stereo not drawn) [Compound 125]	0.05 µM	0.044 µM	
Cc1ccc(Nc2c(-c3ccc(F)cc3)nc3n2CCN(C(=O)C(C)(N)C(F)(F)F)C3)cc1 (stereo not drawn) [Compound 366]	3.47 µM	1.82 µM	
